Source: patent US11844801B2, “Oral compositions of MK2 pathway inhibitor for treatment of immune conditions” (priority 2020, dated 2023)
“And” between values parts separate entries of the source, which are not always exact repeats. Equal values may be shown once. Read-outs that look alike come from different tables or passages of the source.

Experiment: Phase 1 SAD/MAD pharmacokinetics of oral ATI-450 in healthy subjects (incl. 80/120 mg BID extension)
Format: in vivo, human
Conditions: for concentration at 7 day / concentration at 2 day / concentration at 3 day / concentration at 4 day / concentration at 5 day / concentration at 6 day: read-out: Ctrough; for Tmax: read-out: Tmax, median (min, max); for concentration at 2 day: day 2; for concentration at 3 day: day 3; for concentration at 4 day: day 4; for concentration at 5 day: day 5; for concentration at 6 day: day 6; for half-life: read-out: t1/2 (converted)
Protocol: Study Design. […] Single ascending dose (SAD) cohorts. […] Multiple ascending dose (MAD) cohorts. […] Blood Sampling and Bioanalysis. Two-milliliter blood samples were collected for PK analysis. […] The lower limit of quantification was 0.500 ng/mL. Pharmacokinetics. […] Bioanalysis Assay of ATI-450. Sample processing was performed by protein precipitation using a 50.0-μL sample volume. […] A triple quadrupole 6500 mass spectrometer equipped with a turbo-ion spray source was used for detection in positive ion mode. […] A linear calibration curve ranging from 0.500 to 500 ng/mL with a 1/x^2 weighting factor was used. The method was minimally required to have intra- and inter-day precision (coefficients of variation) for pooled plasma quality control samples of ≤15% except at the lower limit of quantitation, where ≤20% was acceptable. The calculated concentrations (both inter- and intra-day) were required to be within 15% of nominal at all concentrations except the lower limit of quantitation, where up to 20% deviation from nominal was acceptable. The precision and accuracy of the method exceeded these minimum requirements for assay validation.

[1] = 100 mg single dose, fed vs fasted
[2] = both sexes, human, plasma, oral, 10 mg, 10 mg BID
[3] = both sexes, human, plasma, oral, 10 mg, 10 mg BID, day 7
[4] = both sexes, human, plasma, oral, 30 mg, 30 mg BID
[5] = both sexes, human, plasma, oral, 30 mg, 30 mg BID, day 7
[6] = both sexes, human, plasma, oral, 50 mg, 50 mg BID, day 1
[7] = both sexes, human, plasma, oral, 50 mg, 50 mg BID
[8] = both sexes, human, plasma, oral, 50 mg, 50 mg BID, day 7

Cc1cnc(-c2ccnc(C(C)(C)O)n2)cc1-n1c(C)cc(OCc2ncc(F)cc2F)c(Cl)c1=O (single isomer, unassigned) [ATI-450, 3-chloro-4-((3,5-difluoropyridin-2-yl)methoxy)-2′-(2-(2-hydroxypropan-2-yl)pyrimidin-4-yl)-5′,6-dimethyl-2H-[1,4′-bipyridin]-2-one]
AUC(0-t) (10 mg BID, day 7): 364.6 ± 110.7 ng·h/mL | AUCtau (10 mg BID, day 7): 287.8 ± 81.5 ng·h/mL | CLss/F (10 mg BID, day 7): 37.4 ± 10.9 L/h | Cavg (10 mg BID, day 7): 24.0 ± 6.8 ng/mL | Cmin (10 mg BID, day 7): 8.1 ± 3.1 ng/mL | Ctrough (10 mg BID, day 7): 11.8 ± 5.2 ng/mL | Tmax, median (min, max) (10 mg BID, day 7): 2.0 (2.0-2.0) h | Vss/F (10 mg BID, day 7): 517.4 ± 203.2 L | AUC(0-t) (30 mg BID, day 7): 1204.6 ± 309.1 ng·h/mL | AUCtau (30 mg BID, day 7): 908.9 ± 163.1 ng·h/mL | CLss/F (30 mg BID, day 7): 33.9 ± 5.9 L/h | Cavg (30 mg BID, day 7): 75.6 ± 13.4 ng/mL | Cmin (30 mg BID, day 7): 28.8 ± 10.7 ng/mL | Ctrough (30 mg BID, day 7): 41.1 ± 18.3 ng/mL | Tmax, median (min, max) (30 mg BID, day 7): 2.0 (1.0-4.0) h | Vss/F (30 mg BID, day 7): 483.1 ± 85.1 L | t1/2 (30 mg BID, day 7): 10.3 ± 3.2 h | Tmax, median (min, max) (50 mg BID, day 1): 2.0 (2.0-4.0) h | AUC0-12 (50 mg BID, day 7): 1507.8 (659.9) ng · h/mL | CLss/F (50 mg BID, day 7): 37.3 ± 11.7 L/h | Cavg (50 mg BID, day 7): 125.6 ± 55.0 ng/mL | Cmax (50 mg BID, day 7): 219.0 (77.8) ng/mL | Cmin (50 mg BID, day 7): 58.7 ± 32.8 ng/mL | Ctrough (50 mg BID, day 7): 87.9 ± 49.4 ng/mL | Tmax, median (min, max) (50 mg BID, day 7): 3.0 (1.0, 4.0) h and 3.0 (1.0-4.0) h | CLss/F (80 mg BID, day 7): 33.2 ± 7.6 L/h | Ctrough (80 mg BID, day 7): 158.3 ± 60.3 ng/mL | AUC0-∞ higher in the fed state [1]: about 24% | Cmax lower in the fed state [1]: about 9% | CLss/F (120 mg BID, day 7): 52.3 ± 17.4 L/h | Ctrough (120 mg BID, day 7): 155.8 ± 93.1 ng/mL | accumulation after multiple dosing (10-50 mg BID): up to 1.4 fold | terminal half-life (mean t1/2), range over cohorts (MAD cohorts 10-50 mg BID, day 7): 9 to 12 h | concentration at 7 day (both sexes, human, plasma, oral, 10 mg BID, day 7): 11.8 ng/mL | AUC(0-t) (both sexes, human, plasma, oral, 10 mg, 10 mg BID, day 1, read-out: AUC0-12): 200 ng·h/mL | Cmax (both sexes, human, plasma, oral, 10 mg, 10 mg BID, day 1, read-out: Cmax): 34.3 ng/mL | Tmax (both sexes, human, plasma, oral, 10 mg, 10 mg BID, day 1): 2 h | concentration at 2 day [2]: 10.1 ± 4.7 ng/mL | concentration at 3 day [2]: 9.8 ± 4.5 ng/mL | concentration at 4 day [2]: 9.2 ± 5 ng/mL | concentration at 5 day [2]: 9.6 ± 4.7 ng/mL | concentration at 6 day [2]: 10.7 ± 4.9 ng/mL | AUC(0-t) (both sexes, human, plasma, oral, 10 mg, 10 mg BID, day 7, read-out: AUC0-12): 288 ng·h/mL | Cmax (both sexes, human, plasma, oral, 10 mg, 10 mg BID, day 7, read-out: Cmax): 51.8 ng/mL | Tmax [3]: 2 h | half-life [3]: 9.6 h | concentration at 7 day (both sexes, human, plasma, oral, 30 mg BID, day 7): 41.1 ng/mL | AUC(0-t) (both sexes, human, plasma, oral, 30 mg, 30 mg BID, day 1, read-out: AUC0-12): 681 ng·h/mL | Cmax (both sexes, human, plasma, oral, 30 mg, 30 mg BID, day 1, read-out: Cmax): 126 ng/mL | Tmax (both sexes, human, plasma, oral, 30 mg, 30 mg BID, day 1): 2 h | concentration at 2 day [4]: 37.5 ± 18.8 ng/mL | concentration at 3 day [4]: 44.1 ± 29.3 ng/mL | concentration at 4 day [4]: 36.8 ± 14.9 ng/mL | concentration at 5 day [4]: 34.9 ± 13.8 ng/mL | concentration at 6 day [4]: 38.9 ± 16.2 ng/mL | AUC(0-t) (both sexes, human, plasma, oral, 30 mg, 30 mg BID, day 7, read-out: AUC0-12): 909 ng·h/mL | Cmax (both sexes, human, plasma, oral, 30 mg, 30 mg BID, day 7, read-out: Cmax): 146 ng/mL | Tmax [5]: 2 h | half-life [5]: 10.3 h | concentration at 7 day (both sexes, human, plasma, oral, 50 mg BID, day 7): 87.9 ng/mL | AUC [6]: 1180 ± 340 ng·h/mL | AUC(0-t) (both sexes, human, plasma, oral, 50 mg, 50 mg BID, day 1, read-out: AUC0-12): 1180 ng·h/mL | AUC(0-t) (both sexes, human, plasma, oral, 50 mg, 50 mg BID, day 1, read-out: AUC0-t): 1180 ± 340 ng·h/mL | Cmax (both sexes, human, plasma, oral, 50 mg, 50 mg BID, day 1, read-out: Cmax): 187 ng/mL | Tmax [6]: 2 h | concentration at 2 day [7]: 84 ± 40.6 ng/mL | concentration at 3 day [7]: 80.6 ± 44.2 ng/mL | concentration at 4 day [7]: 81.5 ± 49.6 ng/mL | concentration at 5 day [7]: 81.5 ± 43.9 ng/mL | concentration at 6 day [7]: 76.4 ± 38.6 ng/mL | AUC [8]: 1510 ± 660 ng·h/mL | AUC(0-t) (both sexes, human, plasma, oral, 50 mg, 50 mg BID, day 7, read-out: AUC0-12): 1510 ng·h/mL | AUC(0-t) (both sexes, human, plasma, oral, 50 mg, 50 mg BID, day 7, read-out: AUC0-24, total daily exposure calculated as AUC0-12 × 2): 3040 ng·h/mL | AUC(0-t) (both sexes, human, plasma, oral, 50 mg, 50 mg BID, day 7, read-out: AUC0-t): 2260 ± 1070 ng·h/mL | Cmax (both sexes, human, plasma, oral, 50 mg, 50 mg BID, day 7, read-out: Cmax): 219 ng/mL | Tmax [8]: 3 h | half-life [8]: 11.6 h | concentration at 7 day (both sexes, human, plasma, oral, 80 mg BID, day 7): 158 ng/mL | AUC (both sexes, human, plasma, oral, 80 mg, 80 mg BID, day 1): 1690 ± 454 ng·h/mL | AUC(0-t) (both sexes, human, plasma, oral, 80 mg, 80 mg BID, day 1, read-out: AUC0-t): 1680 ± 451 ng·h/mL
